Measured values taken from ChEMBL document CHEMBL1782000, “Thiazole-based chalcones as potent antimicrobial agents. Synthesis and biological evaluation” (2011).
In brackets after ≈: the same amount, converted by molar mass.

Key:
Staphylococcus aureus [1] = test: Antibacterial activity against Staphylococcus aureus ATCC 6538 after 24 hrs by microdilution method; format: functional; settings: ATCC 6538, 24 h
Bacillus cereus [2] = test: Antibacterial activity against Bacillus cereus clinical isolate after 24 hrs by microdilution method; format: functional
Micrococcus flavus [3] = test: Antibacterial activity against Micrococcus flavus ATCC 10240 after 24 hrs by microdilution method; format: functional; settings: ATCC 10240, 24 h
Listeria monocytogenes [4] = test: Antibacterial activity against Listeria monocytogenes NCTC 7973 after 24 hrs by microdilution method; format: functional; settings: NCTC 7973, 24 h
Pseudomonas aeruginosa [5] = test: Antibacterial activity against Pseudomonas aeruginosa ATCC 27853 after 24 hrs by microdilution method; format: functional; settings: ATCC 27853, 24 h
Salmonella typhimurium [6] = test: Antibacterial activity against Salmonella Typhimurium ATCC 13311 after 24 hrs by microdilution method; format: functional, Salmonella enterica subsp. enterica serovar Typhimurium; settings: Salmonella enterica, ATCC 13311, 24 h
Escherichia coli [7] = test: Antibacterial activity against Escherichia coli ATCC 35210 after 24 hrs by microdilution method; format: functional; settings: ATCC 35210, 24 h
Enterococcus faecalis [8] = test: Antibacterial activity against Enterococcus faecalis isolate obtained from human after 24 hrs by microdilution method; format: functional
Staphylococcus aureus [9] = test: Bactericidal activity against Staphylococcus aureus ATCC 6538 after 24 hrs; format: functional; settings: ATCC 6538, 24 h
Bacillus cereus [10] = test: Bactericidal activity against Bacillus cereus clinical isolate after 24 hrs; format: functional
Micrococcus flavus [11] = test: Bactericidal activity against Micrococcus flavus ATCC 10240 after 24 hrs; format: functional; settings: ATCC 10240, 24 h
Listeria monocytogenes [12] = test: Bactericidal activity against Listeria monocytogenes NCTC 7973 after 24 hrs; format: functional; settings: NCTC 7973, 24 h
Pseudomonas aeruginosa [13] = test: Bactericidal activity against Pseudomonas aeruginosa ATCC 27853 after 24 hrs; format: functional; settings: ATCC 27853, 24 h
Salmonella typhimurium [14] = test: Bactericidal activity against Salmonella Typhimurium ATCC 13311 after 24 hrs; format: functional, Salmonella enterica subsp. enterica serovar Typhimurium; settings: Salmonella enterica, ATCC 13311, 24 h
Escherichia coli [15] = test: Bactericidal activity against Escherichia coli ATCC 35210 after 24 hrs; format: functional; settings: ATCC 35210, 24 h
Enterococcus faecalis [16] = test: Bactericidal activity against Enterococcus faecalis isolate obtained from human after 24 hrs; format: functional
Aspergillus ochraceus [17] = test: Antifungal activity against Aspergillus ochraceus ATCC 12066 after 72 hrs by serial dilution method; format: functional; settings: ATCC 12066, 72 h
Aspergillus versicolor [18] = test: Antifungal activity against Aspergillus versicolor ATCC 11730 after 72 hrs by serial dilution method; format: functional; settings: ATCC 11730, 72 h
Aspergillus niger [19] = test: Antifungal activity against Aspergillus niger ATCC 6275 after 72 hrs by serial dilution method; format: functional; settings: ATCC 6275, 72 h
Aspergillus fumigatus [20] = test: Antifungal activity against Aspergillus fumigatus plant isolate after 72 hrs by serial dilution method; format: functional
Trichoderma viride [21] = test: Antifungal activity against Trichoderma viride IAM 5061 after 72 hrs by serial dilution method; format: functional; settings: IAM 5061, 72 h
Penicillium ochrochloron [22] = test: Antifungal activity against Penicillium ochrochloron ATCC 9112 after 72 hrs by serial dilution method; format: functional; settings: ATCC 9112, 72 h
Talaromyces funiculosus [23] = test: Antifungal activity against Penicillium funiculosum ATCC 36839 after 72 hrs by serial dilution method; format: functional; settings: ATCC 36839, 72 h
[24] = Antifungal activity against Fusarium sporotrichioides IMT 496 after 72 hrs by serial dilution method; format: functional
Aspergillus ochraceus [25] = test: Fungicidal activity against Aspergillus ochraceus ATCC 12066 after 72 hrs; format: functional; settings: ATCC 12066, 72 h
Aspergillus versicolor [26] = test: Fungicidal activity against Aspergillus versicolor ATCC 11730 after 72 hrs; format: functional; settings: ATCC 11730, 72 h
Aspergillus niger [27] = test: Fungicidal activity against Aspergillus niger ATCC 6275 after 72 hrs; format: functional; settings: ATCC 6275, 72 h
Aspergillus fumigatus [28] = test: Fungicidal activity against Aspergillus fumigatus plant isolate after 72 hrs; format: functional
Trichoderma viride [29] = test: Fungicidal activity against Trichoderma viride IAM 5061 after 72 hrs; format: functional; settings: IAM 5061, 72 h
Penicillium ochrochloron [30] = test: Fungicidal activity against Penicillium ochrochloron ATCC 9112 after 72 hrs; format: functional; settings: ATCC 9112, 72 h
Talaromyces funiculosus [31] = test: Fungicidal activity against Penicillium funiculosum ATCC 36839 after 72 hrs; format: functional; settings: ATCC 36839, 72 h
[32] = tested on: Fusarium sporotrichioides; test: Fungicidal activity against Fusarium sporotrichioides IMT 496 after 72 hrs; format: functional; settings: IMT 496, 72 h

SMILES	MIC (Staphylococcus aureus [1])	MIC (Bacillus cereus [2])	MIC (Micrococcus flavus [3])	MIC (Listeria monocytogenes [4])	MIC (Pseudomonas aeruginosa [5])	MIC (Salmonella typhimurium [6])	MIC (Escherichia coli [7])	MIC (Enterococcus faecalis [8])	MBC (Staphylococcus aureus [9])	MBC (Bacillus cereus [10])	MBC (Micrococcus flavus [11])	MBC (Listeria monocytogenes [12])	MBC (Pseudomonas aeruginosa [13])	MBC (Salmonella typhimurium [14])	MBC (Escherichia coli [15])	MBC (Enterococcus faecalis [16])	MIC (Aspergillus ochraceus [17])	MIC (Aspergillus versicolor [18])	MIC (Aspergillus niger [19])	MIC (Aspergillus fumigatus [20])	also measured
CN[C@@H]1[C@H](O[C@H]2[C@H](O[C@H]3[C@H](O)[C@@H](O)[C@H](N=C(N)N)[C@@H](O)[C@@H]3N=C(N)N)O[C@@H](C)[C@]2(O)C=O)O[C@@H](CO)[C@H](O)[C@H]1O [STREPTOMYCIN]	17.1 µM (≈ 9.95 µg/mL)	2 µM (≈ 1.16 µg/mL)	2 µM (≈ 1.16 µg/mL)	17.1 µM (≈ 9.95 µg/mL)	2 µM (≈ 1.16 µg/mL)	2 µM (≈ 1.16 µg/mL)	8.6 µM (≈ 5 µg/mL)	4.3 µM (≈ 2.5 µg/mL)	42.9 µM (≈ 24.9 µg/mL)	4.3 µM (≈ 2.5 µg/mL)	4.3 µM (≈ 2.5 µg/mL)	43 µM (≈ 25 µg/mL)	4.3 µM (≈ 2.5 µg/mL)	4.3 µM (≈ 2.5 µg/mL)	17.1 µM (≈ 9.95 µg/mL)	8.6 µM (≈ 5 µg/mL)					
CNc1nc(C)c(C(=O)/C=C/c2ccccc2)s1	388 µM (≈ 100 µg/mL)	388 µM (≈ 100 µg/mL)	194 µM (≈ 50 µg/mL)	388 µM (≈ 100 µg/mL)	291 µM (≈ 75.1 µg/mL)	329 µM (≈ 85.1 µg/mL)	329 µM (≈ 85.1 µg/mL)	194 µM (≈ 50 µg/mL)	581 µM (≈ 150 µg/mL)	581 µM (≈ 150 µg/mL)	388 µM (≈ 100 µg/mL)	581 µM (≈ 150 µg/mL)	388 µM (≈ 100 µg/mL)	388 µM (≈ 100 µg/mL)	388 µM (≈ 100 µg/mL)	388 µM (≈ 100 µg/mL)	388 µM (≈ 100 µg/mL)	194 µM (≈ 50.1 µg/mL)	388 µM (≈ 100 µg/mL)	388 µM (≈ 100 µg/mL)	MIC (Trichoderma viride [21]): 194 µM (≈ 50.1 µg/mL); MIC (Penicillium ochrochloron [22]): 194 µM (≈ 50.1 µg/mL); MIC (Talaromyces funiculosus [23]): 388 µM (≈ 100 µg/mL); MIC (10'-2 umol/ml) [24]: 38.8; MFC (Aspergillus ochraceus [25]): 581 µM (≈ 150 µg/mL); MFC (Aspergillus versicolor [26]): 581 µM (≈ 150 µg/mL); MFC (Aspergillus niger [27]): 775 µM (≈ 200 µg/mL); MFC (Aspergillus fumigatus [28]): 581 µM (≈ 150 µg/mL); MFC (Trichoderma viride [29]): 388 µM (≈ 100 µg/mL); MFC (Penicillium ochrochloron [30]): 775 µM (≈ 200 µg/mL); MFC (Talaromyces funiculosus [31]): 581 µM (≈ 150 µg/mL); MFC [32]: 388 µM (≈ 100 µg/mL)
CNc1nc(C)c(C(=O)/C=C/c2c(Cl)cccc2Cl)s1	306 µM (≈ 100 µg/mL)	260 µM (≈ 85 µg/mL)	229 µM (≈ 75 µg/mL)	306 µM (≈ 100 µg/mL)	229 µM (≈ 75 µg/mL)	306 µM (≈ 100 µg/mL)	229 µM (≈ 75 µg/mL)	153 µM (≈ 50 µg/mL)	459 µM (≈ 150 µg/mL)	306 µM (≈ 100 µg/mL)	306 µM (≈ 100 µg/mL)	459 µM (≈ 150 µg/mL)	306 µM (≈ 100 µg/mL)	306 µM (≈ 100 µg/mL)	306 µM (≈ 100 µg/mL)	306 µM (≈ 100 µg/mL)	459 µM (≈ 150 µg/mL)	306 µM (≈ 100 µg/mL)	306 µM (≈ 100 µg/mL)	306 µM (≈ 100 µg/mL)	MIC (Trichoderma viride [21]): 153 µM (≈ 50 µg/mL); MIC (Penicillium ochrochloron [22]): 153 µM (≈ 50 µg/mL); MIC (Talaromyces funiculosus [23]): 306 µM (≈ 100 µg/mL); MIC (10'-2 umol/ml) [24]: 15.3; MFC (Aspergillus ochraceus [25]): 612 µM (≈ 200 µg/mL); MFC (Aspergillus versicolor [26]): 459 µM (≈ 150 µg/mL); MFC (Aspergillus niger [27]): 612 µM (≈ 200 µg/mL); MFC (Aspergillus fumigatus [28]): 306 µM (≈ 100 µg/mL); MFC (Trichoderma viride [29]): 306 µM (≈ 100 µg/mL); MFC (Penicillium ochrochloron [30]): 459 µM (≈ 150 µg/mL); MFC (Talaromyces funiculosus [31]): 459 µM (≈ 150 µg/mL); MFC [32]: 459 µM (≈ 150 µg/mL)
CNc1nc(C)c(C(=O)/C=C/c2cccc(Cl)c2)s1	342 µM (≈ 100 µg/mL)	342 µM (≈ 100 µg/mL)	256 µM (≈ 75.1 µg/mL)	342 µM (≈ 100 µg/mL)	342 µM (≈ 100 µg/mL)	290 µM (≈ 85.1 µg/mL)	290 µM (≈ 85.1 µg/mL)	85.4 µM (≈ 25 µg/mL)	513 µM (≈ 150 µg/mL)	513 µM (≈ 150 µg/mL)	342 µM (≈ 100 µg/mL)	513 µM (≈ 150 µg/mL)	513 µM (≈ 150 µg/mL)	342 µM (≈ 100 µg/mL)	342 µM (≈ 100 µg/mL)	342 µM (≈ 100 µg/mL)	340 µM (≈ 99.5 µg/mL)	340 µM (≈ 99.5 µg/mL)	340 µM (≈ 99.5 µg/mL)	340 µM (≈ 99.5 µg/mL)	MIC (Trichoderma viride [21]): 170 µM (≈ 49.8 µg/mL); MIC (Penicillium ochrochloron [22]): 340 µM (≈ 99.5 µg/mL); MIC (Talaromyces funiculosus [23]): 340 µM (≈ 99.5 µg/mL); MIC (10'-2 umol/ml) [24]: 17; MFC (Aspergillus ochraceus [25]): 513 µM (≈ 150 µg/mL); MFC (Aspergillus versicolor [26]): 513 µM (≈ 150 µg/mL); MFC (Aspergillus niger [27]): 854 µM (≈ 250 µg/mL); MFC (Aspergillus fumigatus [28]): 513 µM (≈ 150 µg/mL); MFC (Trichoderma viride [29]): 340 µM (≈ 99.5 µg/mL); MFC (Penicillium ochrochloron [30]): 513 µM (≈ 150 µg/mL); MFC (Talaromyces funiculosus [31]): 513 µM (≈ 150 µg/mL); MFC [32]: 683 µM (≈ 200 µg/mL)
CC1(C)S[C@@H]2[C@H](NC(=O)[C@H](N)c3ccccc3)C(=O)N2[C@H]1C(=O)O [AMPICILLIN]	248 µM (≈ 86.6 µg/mL)	248 µM (≈ 86.6 µg/mL)	248 µM (≈ 86.6 µg/mL)	248 µM (≈ 86.6 µg/mL)	248 µM (≈ 86.6 µg/mL)	248 µM (≈ 86.6 µg/mL)	248 µM (≈ 86.6 µg/mL)	248 µM (≈ 86.6 µg/mL)	372 µM (≈ 130 µg/mL)	372 µM (≈ 130 µg/mL)	372 µM (≈ 130 µg/mL)	372 µM (≈ 130 µg/mL)	372 µM (≈ 130 µg/mL)	372 µM (≈ 130 µg/mL)	372 µM (≈ 130 µg/mL)	372 µM (≈ 130 µg/mL)					
